Assay results reported in patent US9242987B2, “Heterocyclyl pyrazolopyrimidine analogues as JAK inhibitors” (Cellzome Limited, priority 2009, dated 2016).

Tests used:
JAK2 = biological target: T1, JAK2 (Homo sapiens, UniProt O60674); assay: Kinobeads assay, JAK2; type: binding; details: mixed Molt4/Ramos cell lysate, dot blot detection
T1 construct: endogenous in cells; host or cells: Mixed Molt4/Ramos lysate (1:2)
Method: (§1) The compounds of the present invention as described in the previous examples were tested in a Kinobeads™ assay as described for ZAP-70 (WO-A 2007/137867). Briefly, test compounds (at various concentrations) and the affinity matrix with the immobilized aminopyrido-pyrimidine ligand 24 were added to cell lysate aliquots and allowed to bind to the proteins in the lysate sample. After the incubation time the beads with captured proteins were separated from the lysate. Bound proteins were then eluted and the presence of JAK2 and JAK3 was detected and quantified using specific antibodies in a dot blot procedure and the Odyssey infrared detection system. Dose response curves for individual kinases were generated and IC50 values calculated. Kinobeads™ assays for ZAP-70 (WO-A 2007/137867) and for kinase selectivity profiling (WO-A 2006/134056) have been previously described.
(§2) The affinity matrix was washed two times with 15 mL of 1×DP buffer containing 0.2% NP40 (IGEPAL® CA-630, Sigma, #13021) and then resuspended in 1×DP buffer containing 0.2% NP40 (3% beads slurry).
(§3) 5×DP buffer: 250 mM Tris-HCl pH 7.4, 25% Glycerol, 7.5 mM MgCl2, 750 mM NaCl, 5 mM Na3VO4; filter the 5×DP buffer through a 0.22 μm filter and store in aliquots at −80° C. The 5×DP buffer is diluted with H2O to 1×DP buffer containing 1 mM DTT and 25 mM NaF.
(§4) Stock solutions of test compounds were prepared in DMSO. In a 96 well plate 30 μL solution of diluted test compounds at 5 mM in DMSO were prepared. Starting with this solution a 1:3 dilution series (9 steps) was prepared. For control experiments (no test compound) a buffer containing 2% DMSO was used.
(§5) Molt4 cells (ATCC catalogue number CRL-1582) and Ramos cells (ATCC catalogue number CRL-1596) were grown in 1 L Spinner flasks (Integra Biosciences, #182101) in suspension in RPMI 1640 medium (Invitrogen, #21875-034) supplemented with 10% Fetal Bovine Serum (Invitrogen) at a density between 0.15×10^6 and 1.2×10^6 cells/mL. Cells were harvested by centrifugation, washed once with 1×PBS buffer (Invitrogen, #14190-094) and cell pellets were frozen in liquid nitrogen and subsequently stored at −80° C. Cells were homogenized in a Potter S homogenizer in lysis buffer: 50 mM Tris-HCl, 0.8% NP40, 5% glycerol, 150 mM NaCl, 1.5 mM MgCl2, 25 mM NaF, 1 mM sodium vanadate, 1 mM DTT, pH 7.5. One complete EDTA-free tablet (protease inhibitor cocktail, Roche Diagnostics, 1873580) per 25 mL buffer was added. The material was dounced 10 times using a mechanized POTTER S, transferred to 50 mL falcon tubes, incubated for 30 minutes on ice and spun down for 10 minutes at 20,000 g at 4° C. (10,000 rpm in Sorvall SLA600, precooled). The supernatant was transferred to an ultracentrifuge (UZ)-polycarbonate tube (Beckmann, 355654) and spun for 1 hour at 100.000 g at 4° C. (33.500 rpm in Ti50.2, precooled). The supernatant was transferred again to a fresh 50 mL falcon tube, the protein concentration was determined by a Bradford assay (BioRad) and samples containing 50 mg of protein per aliquot were prepared. The samples were immediately used for experiments or frozen in liquid nitrogen and stored frozen at −80° C.
(§6) Cell lysate (approximately 50 mg protein per plate) was thawed in a water bath at room temperature and then stored on ice. To the thawed cell lysate 1×DP 0.8% NP40 buffer containing protease inhibitors (1 tablet for 25 mL buffer; EDTA-free protease inhibitor cocktail; Roche Diagnostics 1873580) was added in order to reach a final protein concentration of 10 mg/mL total protein. The diluted cell lysate was stored on ice. Mixed Molt4/Ramos lysate was prepared by combining one volume of Molt4 lysate and two volumes of Ramos lysate (ratio 1:2).
(§7) To a 96 well filter plate (Multiscreen HTS, BV Filter Plates, Millipore #MSBVN1250) were added per well: 100 μL affinity matrix (3% beads slurry), […], of compound solution, and 50 μL of diluted lysate. […]

JAK3 = biological target: T2, JAK3 (Homo sapiens, UniProt P52333); assay: Kinobeads assay, JAK3; type: binding; details: mixed Molt4/Ramos cell lysate, dot blot detection
T2 construct: endogenous in cells; host or cells: Mixed Molt4/Ramos lysate (1:2)
T2 sequence (P52333 1-1124): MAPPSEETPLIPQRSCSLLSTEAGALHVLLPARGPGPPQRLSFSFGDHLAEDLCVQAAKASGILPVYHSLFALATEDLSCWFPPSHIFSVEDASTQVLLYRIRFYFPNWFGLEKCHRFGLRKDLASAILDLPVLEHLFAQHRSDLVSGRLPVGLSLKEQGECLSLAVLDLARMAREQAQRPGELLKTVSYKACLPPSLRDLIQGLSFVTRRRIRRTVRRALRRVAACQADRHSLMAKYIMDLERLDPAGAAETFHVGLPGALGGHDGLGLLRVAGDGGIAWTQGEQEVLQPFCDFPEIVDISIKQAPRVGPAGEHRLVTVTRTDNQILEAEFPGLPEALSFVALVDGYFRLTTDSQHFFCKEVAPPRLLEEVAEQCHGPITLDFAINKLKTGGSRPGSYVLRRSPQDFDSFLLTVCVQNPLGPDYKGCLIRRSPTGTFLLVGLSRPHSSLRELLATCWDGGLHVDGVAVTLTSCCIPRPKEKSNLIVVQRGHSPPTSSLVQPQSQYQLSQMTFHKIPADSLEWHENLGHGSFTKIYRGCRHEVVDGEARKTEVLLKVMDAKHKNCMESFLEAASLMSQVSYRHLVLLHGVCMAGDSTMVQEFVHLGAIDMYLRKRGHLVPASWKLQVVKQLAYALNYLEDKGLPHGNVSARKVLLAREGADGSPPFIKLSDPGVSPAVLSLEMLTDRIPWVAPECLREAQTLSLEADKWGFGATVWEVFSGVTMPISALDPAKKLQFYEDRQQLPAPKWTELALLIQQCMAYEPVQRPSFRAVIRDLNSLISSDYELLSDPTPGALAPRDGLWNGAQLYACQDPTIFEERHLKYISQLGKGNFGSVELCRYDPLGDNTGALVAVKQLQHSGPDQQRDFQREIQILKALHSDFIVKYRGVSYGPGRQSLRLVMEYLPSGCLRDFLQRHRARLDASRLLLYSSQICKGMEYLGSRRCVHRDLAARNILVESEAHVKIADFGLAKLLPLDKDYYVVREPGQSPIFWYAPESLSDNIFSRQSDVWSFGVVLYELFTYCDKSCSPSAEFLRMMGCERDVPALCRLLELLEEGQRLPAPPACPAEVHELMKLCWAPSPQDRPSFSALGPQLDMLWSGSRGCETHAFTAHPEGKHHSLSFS
Method: as §1, §2, §3, §4, §5, §6, §7

T1 sequence (O60674 whole entry): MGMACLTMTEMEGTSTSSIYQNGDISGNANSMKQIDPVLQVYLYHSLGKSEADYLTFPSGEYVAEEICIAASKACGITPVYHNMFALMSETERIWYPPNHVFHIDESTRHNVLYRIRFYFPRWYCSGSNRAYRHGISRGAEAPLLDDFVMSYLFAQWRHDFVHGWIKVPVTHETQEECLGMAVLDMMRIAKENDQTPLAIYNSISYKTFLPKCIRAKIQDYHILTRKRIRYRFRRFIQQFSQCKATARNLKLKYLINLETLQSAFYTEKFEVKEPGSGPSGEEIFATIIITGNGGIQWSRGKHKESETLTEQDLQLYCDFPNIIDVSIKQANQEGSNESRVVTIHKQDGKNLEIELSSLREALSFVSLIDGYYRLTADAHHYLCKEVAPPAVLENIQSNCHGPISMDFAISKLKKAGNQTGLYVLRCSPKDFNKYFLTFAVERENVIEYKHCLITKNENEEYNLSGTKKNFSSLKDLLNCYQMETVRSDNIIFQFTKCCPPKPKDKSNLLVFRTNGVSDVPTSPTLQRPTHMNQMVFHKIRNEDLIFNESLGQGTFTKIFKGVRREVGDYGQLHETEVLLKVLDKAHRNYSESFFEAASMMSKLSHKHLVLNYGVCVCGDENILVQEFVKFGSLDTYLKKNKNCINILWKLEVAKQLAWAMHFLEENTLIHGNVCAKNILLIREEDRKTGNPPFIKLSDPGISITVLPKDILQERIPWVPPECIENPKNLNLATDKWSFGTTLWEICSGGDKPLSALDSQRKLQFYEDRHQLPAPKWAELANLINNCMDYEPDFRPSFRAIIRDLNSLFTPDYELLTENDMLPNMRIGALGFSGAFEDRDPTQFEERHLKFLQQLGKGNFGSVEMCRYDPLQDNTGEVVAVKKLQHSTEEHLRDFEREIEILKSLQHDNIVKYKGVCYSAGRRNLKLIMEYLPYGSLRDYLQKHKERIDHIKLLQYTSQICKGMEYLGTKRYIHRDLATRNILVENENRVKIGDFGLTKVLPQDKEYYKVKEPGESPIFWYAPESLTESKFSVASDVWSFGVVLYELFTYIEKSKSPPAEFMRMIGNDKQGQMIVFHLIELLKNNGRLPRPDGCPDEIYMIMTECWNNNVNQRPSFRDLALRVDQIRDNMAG

IC50 (JAK2) [µM] | IC50 (JAK3) [µM] | Structure (SMILES)
1 to 10 | < 0.1 | Cn1cc(Nc2ncc3cnn(Cc4ccccc4C#N)c3n2)cn1 [Example 1, 2-((6-(1-Methyl-1H-pyrazol-4-ylamino)-1H-pyrazolo[3,4-d]pyrimidin-1-yl)methyl)benzonitrile]
1 to 10 | < 0.1 | Cn1cc(Nc2ncc3cnn(Cc4ccccc4F)c3n2)cn1 [Example 2, 1-(2-Fluorobenzyl)-N-(1-methyl-1H-pyrazol-4-yl)-1H-pyrazolo[3,4-d]pyrimidin-6-amine]
≥ 10 | 0.1 to 1 | Cn1ccc(Nc2ncc3cnn(Cc4ccccc4C#N)c3n2)n1 [Example 3, 2-((6-(1-Methyl-1H-pyrazol-3-ylamino)-1H-pyrazolo[3,4-d]pyrimidin-1-yl)methyl)benzonitrile]
0.1 to 1 | < 0.1 | N#Cc1ccccc1Cn1ncc2cnc(Nc3cn[nH]c3)nc21 [Example 4, 2-((6-(1H-Pyrazol-4-ylamino)-1H-pyrazolo[3,4-d]pyrimidin-1-yl)methyl)benzonitrile]
≥ 10 | 1 to 10 | N#Cc1ccccc1Cn1ncc2cnc(Nc3ccon3)nc21 [Example 8]
≥ 10 | 0.1 to 1 | Cc1cc(Nc2ncc3cnn(Cc4ccccc4C#N)c3n2)nn1C [Example 9, 2-((6-(1,5-Dimethyl-1H-pyrazol-3-ylamino)-1H-pyrazolo[3,4-d]pyrimidin-1-yl)methyl)benzonitrile]
0.1 to 1 | < 0.1 | COCCn1cc(Nc2ncc3cnn(Cc4ccccc4C#N)c3n2)cn1 [Example 10, 2-((6-(1-(2-Methoxyethyl)-1H-pyrazol-4-ylamino)-1H-pyrazolo[3,4-d]pyrimidi-1-yl)methyl)benzonitrile]
1 to 10 | < 0.1 | CCn1cc(Nc2ncc3cnn(Cc4ccccc4C#N)c3n2)cn1 [Example 11, 2-((6-(1-Ethyl-1H-pyrazol-4-ylamino)-1H-pyrazolo[3,4-d]pyrimidin-1-yl)methyl)benzonitrile]
1 to 10 | < 0.1 | CC(C)n1cc(Nc2ncc3cnn(Cc4ccccc4C#N)c3n2)cn1 [Example 12, 2-((6-(1-Isopropyl-1H-pyrazol-4-ylamino)-1H-pyrazolo[3,4-d]pyrimidin-1-yl)methyl)benzonitrile]
0.1 to 1 | < 0.1 | CNC(=O)Cn1cc(Nc2ncc3cnn(Cc4ccccc4C#N)c3n2)cn1 [Example 13, 2-(4-(1-(2-Cyanobenzyl)-1H-pyrazolo[3,4-d]pyrimidin-6-ylamino)-1H-pyrazol-1-yl)-N-methylacetamide]
0.1 to 1 | < 0.1 | N#Cc1ccccc1Cn1ncc2cnc(Nc3cnn(CC(=O)N4CCOCC4)c3)nc21 [Example 14, 2-((6-(1-(2-Morpholino-2-oxoethyl)-1H-pyrazol-4-ylamino)-1H-pyrazolo[3,4-d]pyrimidin-1-yl)methyl)benzonitrile]
1 to 10 | < 0.1 | N#CCCn1cc(Nc2ncc3cnn(Cc4ccccc4C#N)c3n2)cn1 [Example 15, 2-((6-(1-(2-Cyanoethyl)-1H-pyrazol-4-ylamino)-1H-pyrazolo[3,4-d]pyrimidin-1-yl)methyl)benzonitrile]
1 to 10 | < 0.1 | Cn1cc(Nc2ncc3cnn(Cc4ccccc4C(N)=O)c3n2)cn1 [Example 16, 2-((6-(1-Methyl-1H-pyrazol-4-ylamino)-1H-pyrazolo[3,4-d]pyrimidin-1-yl)methyl)benzamide]
≥ 10 |  | Cn1cc(Nc2ncc3cnn(Cc4cccc(N5CCOCC5)c4)c3n2)cn1 [Example 162, N-(1-Methyl-1H-pyrazol-4-yl)-1-(3-morpholinobenzyl)-1H-pyrazolo[3,4-d]pyrimidin-6-amine]
≥ 10 |  | O=C(c1cccc(Cn2ncc3cnc(Nc4cnn(CCO)c4)nc32)c1F)N1CCOCC1 [Example 313, (2-Fluoro-3-((6-((1-(2-hydroxyethyl)-1H-pyrazol-4-yl)amino)-1H-pyrazolo[3,4-d]pyrimidin-1-yl)methyl)phenyl)(morpholino)methanone]
